Test results as given in the supplement of paper PMC10307832.

Key:
Assay in all cases: relative viability (nuclei count vs DMSO), 5 days (fraction); higher = more cells survive
Zosuquidar + Phenformin = compound: O[C@@H](COc1cccc2ncccc12)CN1CCN([C@@H]2c3ccccc3[C@@H]3[C@H](c4ccccc42)C3(F)F)CC1 [Zosuquidar] + N=C(N)NC(=N)NCCc1ccccc1 [Phenformin] (partner 250 µM)
Outline: (§1)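 Relative viability equals treated-well nuclei counts divided by vehicle-well nuclei counts. Counts came from 4× images of lung cancer cell lines grown in 1536-well plates for 5 days after pin-tool dosing on the day after seeding. Dosing used one drug alone or a fixed anchor-drug dose plus five library-drug doses (not always all listed) in √10 steps, and values are medians of duplicate plates.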

Zosuquidar + Navitoclax = compound: O[C@@H](COc1cccc2ncccc12)CN1CCN([C@@H]2c3ccccc3[C@@H]3[C@H](c4ccccc42)C3(F)F)CC1 [Zosuquidar] + CC1(C)CCC(c2ccc(Cl)cc2)=C(CN2CCN(c3ccc(C(=O)NS(=O)(=O)c4ccc(N[C@H](CCN5CCOCC5)CSc5ccccc5)c(S(=O)(=O)C(F)(F)F)c4)cc3)CC2)C1 [Navitoclax] (partner 0.5 µM)
Outline: as §1

Zosuquidar + Olaparib = compound: O[C@@H](COc1cccc2ncccc12)CN1CCN([C@@H]2c3ccccc3[C@@H]3[C@H](c4ccccc42)C3(F)F)CC1 [Zosuquidar] + O=C(c1cc(Cc2n[nH]c(=O)c3ccccc23)ccc1F)N1CCN(C(=O)C2CC2)CC1 [Olaparib] (partner 8 µM)
Outline: as §1

Kobe2602 + OSI-027 = compound: C1=CC(=CC=C1NC(=S)NNC2=C(C=C(C=C2[N+](=O)[O-])C(F)(F)F)[N+](=O)[O-])F [Kobe2602] + COc1cccc2cc(-c3nc([C@H]4CC[C@H](C(=O)O)CC4)n4ncnc(N)c34)[nH]c12 [OSI-027] (partner 0.5 µM)
Outline: as §1

**Q.** With UMC-11 as the cell line, how does the relative viability (Zosuquidar + Phenformin; first compound 0.01 µM) read?
**A.** 0.32

**Q.** And the relative viability (Zosuquidar + Phenformin; first compound 0.03162 µM)?
**A.** 0.331

**Q.** And the relative viability (Zosuquidar + Phenformin; first compound 0.1 µM)?
**A.** 0.441

**Q.** What about the relative viability (Zosuquidar + Phenformin; first compound 0.3162 µM) of the same cell line?
**A.** 0.386

**Q.** What about the relative viability (Zosuquidar + Phenformin; first compound 1 µM) of the same cell line?
**A.** 0.324

**Q.** What about the relative viability (Zosuquidar + Navitoclax; first compound 0.01 µM) of the same cell line?
**A.** 0.323

**Q.** What about the relative viability (Zosuquidar + Navitoclax; first compound 0.03162 µM) of the same cell line?
**A.** 0.294

**Q.** And the relative viability (Zosuquidar + Navitoclax; first compound 0.1 µM)?
**A.** 0.341

**Q.** And the relative viability (Zosuquidar + Navitoclax; first compound 0.3162 µM)?
**A.** 0.339

**Q.** And the relative viability (Zosuquidar + Navitoclax; first compound 1 µM)?
**A.** 0.292

**Q.** What about the relative viability (Zosuquidar + Olaparib; first compound 0.01 µM) of the same cell line?
**A.** 0.505

**Q.** And the relative viability (Zosuquidar + Olaparib; first compound 0.03162 µM)?
**A.** 0.38

**Q.** And the relative viability (Zosuquidar + Olaparib; first compound 0.1 µM)?
**A.** 0.413

**Q.** What about the relative viability (Zosuquidar + Olaparib; first compound 0.3162 µM) of the same cell line?
**A.** 0.385

**Q.** What about the relative viability (Zosuquidar + Olaparib; first compound 1 µM) of the same cell line?
**A.** 0.34

**Q.** What about the relative viability (Kobe2602 + OSI-027; first compound 0.2 µM) of the same cell line?
**A.** 0.461

**Q.** What about the relative viability (Kobe2602 + OSI-027; first compound 0.6325 µM) of the same cell line?
**A.** 0.537

**Q.** And the relative viability (Kobe2602 + OSI-027; first compound 2 µM)?
**A.** 0.539

**Q.** What about the relative viability (Kobe2602 + OSI-027; first compound 6.325 µM) of the same cell line?
**A.** 0.459

**Q.** What about the relative viability (Kobe2602 + OSI-027; first compound 20 µM) of the same cell line?
**A.** 0.467
